Source: ChEMBL document CHEMBL4043238, “Discovery of N-substituted 7-azaindoles as Pan-PIM kinase inhibitors - Lead series identification - Part II” (Bioorg Med Chem Lett, 2017)
Converted amounts (≈) assume the structure as drawn.

Assays:
[1] = biological target: T1, Serine/threonine-protein kinase pim-1 (Homo sapiens, UniProt P11309); test: Inhibition of PIM1 (unknown origin) assessed as reduction in BAD phosphorylation at Ser112 residues by TR-FRET assay
[2] = biological target: Serine/threonine-protein kinase pim-3 (Homo sapiens, UniProt Q86V86); test: Inhibition of PIM3 (unknown origin) assessed as reduction in BAD phosphorylation at Ser112 residues by TR-FRET assay
[3] = biological target: Serine/threonine-protein kinase pim-2 (Homo sapiens, UniProt Q9P1W9); test: Inhibition of PIM2 (unknown origin) assessed as reduction in BAD phosphorylation at Ser112 residues by TR-FRET assay
[4] = Half life in mouse at 3 mg/kg, iv administered as single dose; type: ADME, organism-based; conditions: in vivo
[5] = Clearance in human liver microsomes assessed as compound extraction at 5 uM; type: ADME, microsome; conditions: read-out: CLH
[6] = biological target: T1, Serine/threonine-protein kinase pim-1; test: Inhibition of PIM1 in human KG1 cells assessed as reduction in BAD phosphorylation; type: cell-based
[7] = Thermodynamic solubility of the compound at pH 7.4; type: physicochemical; conditions: buffer, read-out: Therm_solubility
[8] = Volume of distribution at steady state in mouse at 3 mg/kg, iv administered as single dose; type: ADME, organism-based; conditions: in vivo, read-out: Vdss
[9] = Inhibition of CYP450 (unknown origin); type: ADME; conditions: human
[10] = Cmax in mouse at 3 mg/kg, iv or 10 mg/kg, po administered as single dose; type: ADME, organism-based; conditions: in vivo
[11] = Half life in mouse at 10 mg/kg, po administered as single dose; type: ADME, organism-based; conditions: in vivo
[12] = AUC (0 to infinity) in mouse at 10 mg/kg, po administered as single dose; type: ADME, organism-based; set-up: dose 10 mg/kg, route oral, time infinity; conditions: in vivo
[13] = Induction of CYP450 (unknown origin); type: ADME; conditions: human
Mus musculus [14] = test: (§1) Oral bioavailability in mouse at 10 mg/kg administered as single dose; type: ADME, organism-based; conditions: in vivo
[15] = Clearance in mouse at 3 mg/kg, iv administered as single dose; type: ADME, organism-based; conditions: in vivo
[16] = biological target: Voltage-gated inwardly rectifying potassium channel KCNH2 (Homo sapiens, UniProt Q12809); test: Inhibition of human ERG by patch clamp assay
[17] = Permeability from apical to basolateral side in human Caco2/TC7 cells at 5 uM; type: ADME, cell-based; conditions: Caco-2, read-out: permeability
KG-1 = test: Antiproliferative activity against human KG1 cells; type: functional, cell-based
Mus musculus [18] = test: Clearance in mouse at 3 mg/kg, iv administered as single dose relative to hepatic blood flow; type: ADME, organism-based; conditions: in vivo
[19] = as §1; type: ADME, organism-based; conditions: in vivo

Compound | IC50 [1] [nM] | IC50 [2] [nM] | IC50 [3] [nM] | other results
NC(=O)c1cc(Cl)c2c(Cl)c(I)n(CC3CCCN3)c2n1 (racemic) | 12 | 45 | 383 | 
NC(=O)c1cc(Cl)c2c(Cl)c(I)n(C3CCCNCC3)c2n1 (racemic) | 1 | 3 | 15 | 
NC(=O)c1cc(Cl)c2c(Cl)c(I)n(C3CN4CCC3CC4)c2n1 (racemic) | 6 | 27 | 99 | 
CSc1c(Cl)c2c(Cl)cc(C(N)=O)nc2n1C1CCCNC1 (stereo unspecified) | 3 |  | 15 | 
NC(=O)c1cc(Cl)c2c(Cl)c(C3CC3)n(C3CCCNC3)c2n1 (racemic) | 1 |  | 13 | half-life [4]: 3.1 h; hepatic extraction ratio at 5 µM [5]: 0.02; IC50 [6]: 115 nM; solubility thermodynamic [7]: 0.4 µM (≈ 0.141 µg/mL); Vd [8]: 4.6 L/kg; inhibition (INH) [9]: Not Active; Cmax [10]: 292 ng/mL; half-life [11]: 8.9 h; AUC(0-inf) [12]: 13700 ng·h/mL; Activity [13]: Not Active; F (Mus musculus [14]): 155%; clearance [15]: 18.3 mL/min/kg; IC50 [16]: 2900 nM; Papp A→B at 5 µM [17]: 1.9 ×10⁻⁶ cm/s; IC50 (KG-1): 310 nM
NC(=O)c1cc(Cl)c2c(Cl)c(I)n(C3CCCC(N)C3)c2n1 (racemic) | 1 | 2 | 10 | 
NC(=O)c1cc(Cl)c2c(Cl)c(I)n(C3CCNCC3)c2n1 | 2 | 4 | 28 | 
NC(=O)c1cc(Cl)c2c(Cl)c(I)n(C3CCCC(O)C3)c2n1 (racemic) | 8 | 28 | 89 | 
CC(C)=Cc1c(Cl)c2c(Cl)cc(C(N)=O)nc2n1C1CCCNC1 (stereo unspecified) | 4 |  | 24 | 
COCC1CC1c1c(Cl)c2c(Cl)cc(C(N)=O)nc2n1C1CCCNC1 (stereo unspecified) | 42 |  | 298 | 
NC(=O)c1cc(Cl)c2c(Cl)c(C#CC3CC3)n(C3CCCNC3)c2n1 (racemic) | 0.7 |  | 6 | half-life [4]: 2.6 h; hepatic extraction ratio at 5 µM [5]: 0.21; IC50 [6]: 75 nM; solubility thermodynamic [7]: 13 µM (≈ 4.9 µg/mL); Vd [8]: 11 L/kg; Cmax [10]: 958 ng/mL; half-life [11]: 3.3 h; CL (Mus musculus [18]): > 75%; AUC(0-inf) [12]: 2500 ng·h/mL; bioavailability [19]: 97%; clearance [15]: 65 mL/min/kg; IC50 [16]: 1000 nM; Papp A→B at 5 µM [17]: 3 ×10⁻⁶ cm/s; IC50 (KG-1): 167 nM
NCC1CCC(n2c(I)c(Cl)c3c(Cl)cc(C(N)=O)nc32)CC1 (stereo unspecified) | 3 |  | 9 | 
NC(=O)c1cc(Cl)c2c(Cl)c(I)n(CC3CCNC3)c2n1 (racemic) | 1 | 1 | 23 | 
NC(=O)c1cc(Cl)c2c(Cl)c(I)n(C3CCNC(=O)C3)c2n1 (racemic) | 32 | 64 | 660 | 
NC(=O)c1cc(Cl)c2c(Cl)c(I)n(C3CCC(O)CC3)c2n1 (stereo unspecified) | 8 | 25 | 116 | 
NC(=O)c1cc(Cl)c2c(Cl)c(I)n(CC3CCNCC3)c2n1 | 4 | 12 | 99 | 
NC(=O)c1cc(Cl)c2c(Cl)c(I)n(C3CCCNC3)c2n1 (racemic) | 1 | 2 | 6 | half-life [4]: 1.5 h; hepatic extraction ratio at 5 µM [5]: 0.35; IC50 [6]: 47 nM; solubility thermodynamic [7]: 42 µM (≈ 18.4 µg/mL); Vd [8]: 0.55 L/kg; Cmax [10]: 3500 ng/mL; half-life [11]: 2.3 h; AUC(0-inf) [12]: 15000 ng·h/mL; bioavailability [19]: 54%; clearance [15]: 6 mL/min/kg; Papp A→B at 5 µM [17]: 2.6 ×10⁻⁶ cm/s; IC50 (KG-1): 85 nM
